Legend:
Format in all cases: cell-based, BALB/c mouse
Th1 clone L3 = assay: BUdR incorporation ELISA proliferation assay, Th1 clone L3; conditions: Table 12
Protocol: (§1) The epitopes recognized by 15 iLRP-reactive T cell clones derived from either naive BALB/c mice, BALB/c mice bearing MCA1315 fibrosarcoma tumors, or from BALB/c mice immunized with either 1 or 10 μg of recombinant murine iLRP were determined by testing the proliferation of those clones to overlapping peptides spanning the region of the iLRP molecule recognized by each clone in the presence of IL-2, as a growth factor for T cells and irradiated, T cell-depleted, syngeneic spleen cells as antigen-presenting cells. Proliferation was measured through ELISA determination of 5-bromodeoxyuridine incorporation during culture.
(§2) More specifically, the epitope-specificity of the iLRP-specific Th1, Tc, and Ts clones was determined using a modification of the 5′-bromodeoxyuridine (BudR) incorporation ELISA technique described in Rohrer, J. W., A. L. Barsoum, D. L. Dyess, J. A. Tucker, and J. H. Coggin, Jr. 1999. Human breast carcinoma patients develop clonable oncofetal antigen-specific effector and regulatory T lymphocytes. J. Immunol. 162:6880, using the Biotrak BUdR incorporation assay (Amersham, Arlington Heights, Ill.). […] When the required color density was reached, the reaction was stopped by adding 25 μl of 1M sulfuric acid to each well and the plate read on a microELISA reader at 450 nm. […]

Th1 clone H1 = assay: BUdR incorporation ELISA proliferation assay, Th1 clone H1; conditions: Table 12; 100 ng/well, APC, 100 U/ml IL-2; two values given
Protocol: as §1, §2

Th1 Clone NC1 = assay: BUdR incorporation ELISA proliferation assay, Th1 clone NC1; conditions: Table 11
Protocol: as §1, §2

Tc Clone L2 = assay: BUdR incorporation ELISA proliferation assay, Tc clone L2; conditions: Table 11
Protocol: as §1, §2

Th1 clone M2 = assay: BUdR incorporation ELISA proliferation assay, Th1 clone M2; conditions: Table 12
Protocol: as §1, §2

Th1 clone NC4 = assay: BUdR incorporation ELISA proliferation assay, Th1 clone NC4; conditions: Table 12
Protocol: as §1, §2

AQPEVADWSEGV [P21 (241-252)]
Response of clone L3 (in words) (Th1 clone L3): responded best
Proliferation Results (A450) of Th1 Clone H1 (Th1 clone H1): .02, .02 A450

GEWTAPAPEFTA [P18 (229-240)]
Response of Th1 clone NC1 (in words) (Th1 Clone NC1): responded best
Proliferation of CD8 Tc clone L2 (in words) (Tc Clone L2): proliferated identically

QVPSVPIQQFPT [P24 (253-264)]
Response of clone M2 (in words) (Th1 clone M2): responded best

TAQATEWVGATT [P31 (281-292)]
Proliferation Results (A450) of Th1 Clone L3 (Th1 clone L3; 100 ng/well, APC, 100 U/ml IL-2, two values given): .02, .02 A450

TEWVGATTDWS [P32 (285-295)]
Response of clone NC4 (in words) (Th1 clone NC4): responded best

— patent US8709405B2, “Cancer vaccines containing epitopes of oncofetal antigen” (South Alabama Medical Science Foundation, priority 2002, dated 2014)
